Reference: US6737383B1, “Herbicidal oxadiazolidines” (priority 1999, dated 2004)

Assays:
corn = assay: Test B pre/postemergence corn; assay type: in vivo, Zea mays
Procedure, shortened: (§1)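 Response is a visual 0-to-10 score relative to untreated plants, where 0 means no effect and 10 means complete control, taken twelve to sixteen days after application. Treatments went onto soil at planting and onto foliage of 1- to 4-leaf plants, using a surfactant-containing non-phytotoxic solvent.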

velvetleaf = assay: Test B pre/postemergence velvetleaf; assay type: in vivo, Abutilon theophrasti
Procedure, shortened: as §1

blackgrass = assay: Test B pre/postemergence blackgrass; assay type: in vivo, Alopecurus myosuroides
Procedure, shortened: as §1

sugar beet = assay: Test B pre/postemergence sugar beet; assay type: in vivo, Beta vulgaris
Procedure, shortened: as §1

smallflower flatsedge = assay: Test B flood test smallflower flatsedge; assay type: in vivo, Cyperus difformis
Procedure, shortened: (§2)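 Flood test on plants grown to the 2-leaf stage; treated plants kept in greenhouse twelve to sixteen days, then visually rated against controls on a 0 (no effect) to 10 (complete control) scale.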

wheat = assay: Test B pre/postemergence wheat; assay type: in vivo, Triticum aestivum
Procedure, shortened: as §1

soybean = assay: Test B pre/postemergence soybean; assay type: in vivo, Glycine max
Procedure, shortened: as §1

bedstraw = assay: Test B pre/postemergence bedstraw; assay type: in vivo, Galium aparine; conditions: Postemergence
Procedure, shortened: as §1

cocklebur = assay: Test B pre/postemergence cocklebur; assay type: in vivo, Xanthium strumarium
Procedure, shortened: as §1

surinam grass = assay: Test B pre/postemergence surinam grass; assay type: in vivo, Brachiaria decumbens
Procedure, shortened: as §1

purple nutsedge = assay: Test B pre/postemergence purple nutsedge; assay type: in vivo, Cyperus rotundus
Procedure, shortened: as §1

wild oat = assay: Test B pre/postemergence wild oat; assay type: in vivo, Avena fatua
Procedure, shortened: as §1

bamyardgrass = assay: Test B flood test barnyardgrass; assay type: in vivo, Echinochloa crus-galli
Procedure, shortened: as §2

pigweed = assay: Test B pre/postemergence pigweed; assay type: in vivo, Amaranthus retroflexus
Procedure, shortened: as §1

crabgrass = assay: Test B pre/postemergence crabgrass; assay type: in vivo, Digitaria sanguinalis
Procedure, shortened: as §1

rape = assay: Test B pre/postemergence rape; assay type: in vivo, Brassica napus
Procedure, shortened: as §1

[1] = Postemergence, Rate 125 g/ha, scale 0 to 10, 0 is no effect, 10 is complete control
[2] = Preemergence, Rate 62 g/ha, scale of 0 to 10 where 0 is no effect and 10 is complete control
[3] = Preemergence, Rate 250 g/ha, scale of 0 to 10 where 0 is no effect and 10 is complete control
[4] = Preemergence, Rate 500 g/ha, scale of 0 to 10 where 0 is no effect and 10 is complete control
[5] = Rate 62 g/ha, Postemergence, scale 0 to 10 (0 no effect, 10 complete control)
[6] = Rate 250 g/ha, Postemergence, scale of 0 to 10 where 0 is no effect and 10 is complete control
[7] = Rate 500 g/ha, Postemergence, scale 0 to 10, 0 no effect, 10 complete control
[8] = Rate 62 g/ha, headed Pre-emergence (flood test species), scale 0 to 10 (0 no effect, 10 complete control)
[9] = Rate 125 g/ha, Pre-emergence, flood test species, scale 0 to 10 where 0 is no effect and 10 is complete control
[10] = Rate 250 g/ha, Pre-emergence, flood-test species, scale 0 to 10, 0 is no effect, 10 is complete control
[11] = Rate 500 g/ha, Pre-emergence, flood test species, scale 0 to 10 (0 no effect, 10 complete control)

CC(C)N(C(=O)n1oc(=O)n(C2CC3CCC2C3)c1=O)c1ccc(F)cc1F (centres unmarked) [Compound 326]
Plant response rating, Corn (corn; [1]): 0
Corn plant response rating (corn; [2]): 0
Corn plant response rating (0 to 10 scale) (corn; Preemergence, Rate 125 g/ha): 0
Corn plant response rating (corn; [3]): 0
Corn plant response rating (corn; [4]): 2
Corn plant response rating (corn; [5]): 0
Plant response rating, Corn (corn; [6]): 0
Plant response rating, Corn (corn; [7]): 0
Plant response rating, Velvetleaf (velvetleaf; [1]): 0
Velvetleaf plant response rating (velvetleaf; [2]): 0
Velvetleaf plant response rating (0 to 10 scale) (velvetleaf; Preemergence, Rate 125 g/ha): 0
Velvetleaf plant response rating (velvetleaf; [3]): 0
Velvetleaf plant response rating (velvetleaf; [4]): 0
Velvetleaf plant response rating (velvetleaf; [5]): 0
Plant response rating, Velvetleaf (velvetleaf; [6]): 2
Plant response rating, Velvetleaf (velvetleaf; [7]): 2
Plant response rating, Blackgrass (blackgrass; [1]): 0
Blackgrass plant response rating (blackgrass; [2]): 0
Blackgrass plant response rating (0 to 10 scale) (blackgrass; Preemergence, Rate 125 g/ha): 5
Blackgrass plant response rating (blackgrass; [3]): 7
Blackgrass plant response rating (blackgrass; [4]): 8
Blackgrass plant response rating (blackgrass; [5]): 0
Plant response rating, Blackgrass (blackgrass; [6]): 0
Plant response rating, Blackgrass (blackgrass; [7]): 1
Plant response rating, Sugarbeets (sugar beet; [1]): 0
Sugarbeets plant response rating (sugar beet; [2]): 0
Sugarbeets plant response rating (0 to 10 scale) (sugar beet; Preemergence, Rate 125 g/ha): 0
Sugarbeets plant response rating (sugar beet; [3]): 0
Sugarbeets plant response rating (sugar beet; [4]): 2
Sugarbeets plant response rating (sugar beet; [5]): 0
Plant response rating, Sugarbeets (sugar beet; [6]): 0
Plant response rating, Sugarbeets (sugar beet; [7]): 0
S. Flatsedge plant response rating (smallflower flatsedge; [8]): 0
S. Flatsedge plant response rating (smallflower flatsedge; [9]): 0
S. Flatsedge plant response rating (smallflower flatsedge; [10]): 0
S. Flatsedge plant response rating (smallflower flatsedge; [11]): 0
Plant response rating, Wheat (wheat; [1]): 0
Wheat plant response rating (wheat; [2]): 0
Wheat plant response rating (0 to 10 scale) (wheat; Preemergence, Rate 125 g/ha): 0
Wheat plant response rating (wheat; [3]): 0
Wheat plant response rating (wheat; [4]): 2
Wheat plant response rating (wheat; [5]): 0
Plant response rating, Wheat (wheat; [6]): 0
Plant response rating, Wheat (wheat; [7]): 0
Plant response rating, Soybean (soybean; [1]): 5
Soybean plant response rating (soybean; [2]): 0
Soybean plant response rating (0 to 10 scale) (soybean; Preemergence, Rate 125 g/ha): 0
Soybean plant response rating (soybean; [3]): 0
Soybean plant response rating (soybean; [4]): 0
Soybean plant response rating (soybean; [5]): 3
Plant response rating, Soybean (soybean; [6]): 5
Plant response rating, Soybean (soybean; [7]): 6
Plant response rating, Bedstraw (bedstraw; Rate 125 g/ha, scale 0 to 10, 0 is no effect, 10 is complete control): 5
Plant response rating, Bedstraw (bedstraw; Rate 250 g/ha, scale of 0 to 10 where 0 is no effect and 10 is complete control): 7
Plant response rating, Cocklebur (cocklebur; [1]): 0
Cocklebur plant response rating (cocklebur; [2]): 0
Cocklebur plant response rating (0 to 10 scale) (cocklebur; Preemergence, Rate 125 g/ha): 0
Cocklebur plant response rating (cocklebur; [3]): 0
Cocklebur plant response rating (cocklebur; [4]): 0
Cocklebur plant response rating (cocklebur; [5]): 0
Plant response rating, Cocklebur (cocklebur; [6]): 0
Plant response rating, Cocklebur (cocklebur; [7]): 2
Plant response rating, B. signalgrass (surinam grass; [1]): 0
B. signalgrass plant response rating (surinam grass; [2]): 0
B. signalgrass plant response rating (0 to 10 scale, 0 is no effect, 10 is complete control) (surinam grass; Preemergence, Rate 125 g/ha): 0
B. signalgrass plant response rating (surinam grass; [3]): 3
B. signalgrass plant response rating (surinam grass; [4]): 7
B. signalgrass plant response rating (surinam grass; [5]): 0
Plant response rating, B. signalgrass (surinam grass; [6]): 0
Plant response rating, B. signalgrass (surinam grass; [7]): 0
Plant response rating, Nutsedge (purple nutsedge; [1]): 0
Nutsedge plant response rating (purple nutsedge; [2]): 0
Nutsedge plant response rating (purple nutsedge; [3]): 0
Nutsedge plant response rating (purple nutsedge; [4]): 0
Nutsedge plant response rating (purple nutsedge; [5]): 0
Plant response rating, Nutsedge (purple nutsedge; [6]): 0
Plant response rating, Nutsedge (purple nutsedge; [7]): 0
Plant response rating, Wild oats (wild oat; [1]): 0
Wild oats plant response rating (wild oat; [2]): 0
Wild oats plant response rating (0 to 10 scale) (wild oat; Preemergence, Rate 125 g/ha): 1
Wild oats plant response rating (wild oat; [3]): 3
Wild oats plant response rating (wild oat; [4]): 3
Wild oats plant response rating (wild oat; [5]): 0
Plant response rating, Wild oats (wild oat; [6]): 0
Plant response rating, Wild oats (wild oat; [7]): 0
Barnyardgrass plant response rating (bamyardgrass; [8]): 0
Barnyardgrass plant response rating (bamyardgrass; [9]): 0
Barnyardgrass plant response rating (bamyardgrass; [10]): 8
Barnyardgrass plant response rating (bamyardgrass; [11]): 9
Plant response rating, Redroot pigweed (pigweed; [1]): 4
Redroot pigweed plant response rating (pigweed; [2]): 1
Redroot pigweed plant response rating (0 to 10 scale) (pigweed; Preemergence, Rate 125 g/ha): 3
Redroot pigweed plant response rating (pigweed; [3]): 6
Redroot pigweed plant response rating (pigweed; [4]): 7
Redroot pigweed plant response rating (pigweed; [5]): 3
Plant response rating, Redroot pigweed (pigweed; [6]): 4
Plant response rating, Redroot pigweed (pigweed; [7]): 7
Plant response rating, Crabgrass (crabgrass; [1]): 0
Crabgrass plant response rating (crabgrass; [2]): 0
Crabgrass plant response rating (0 to 10 scale) (crabgrass; Preemergence, Rate 125 g/ha): 0
Crabgrass plant response rating (crabgrass; [3]): 3
Crabgrass plant response rating (crabgrass; [4]): 5
Crabgrass plant response rating (crabgrass; [5]): 0
Plant response rating, Crabgrass (crabgrass; [6]): 1
Plant response rating, Crabgrass (crabgrass; [7]): 3
Plant response rating, Rape (rape; [1]): 0
Rape plant response rating (rape; [2]): 0
Rape plant response rating (0 to 10 scale) (rape; Preemergence, Rate 125 g/ha): 0
Rape plant response rating (rape; [3]): 0
Rape plant response rating (rape; [4]): 1
Rape plant response rating (rape; [5]): 0
Plant response rating, Rape (rape; [6]): 1
Plant response rating, Rape (rape; [7]): 3
